Experimental data taken from patent publication US10765114B2, “4-amino-6-(pyridyl and 2-substitutedphenyl)-picolinates and 6-amino-2-(pyridyl and 2-substitutedphenyl)-pyrimidine-4-carboxylates and their use as herbicides” (Dow AgroSciences LLC, priority 2013, dated 2020).

These compounds were tested on Key Broadleaf Weed and Crop Species (assay: Post-Emergent Test II (Table 5)). Settings: Abutilon theophrasti, post-emergence, 336 h, ABUTH: velvetleaf (Abutilon theophrasti), application rate 70 (kg ai/ha; footnote: g ai/ha), read-out: Visual Growth Reduction (%) 14 Days After Application ABUTH.
Type: in vivo
Outline: (§1)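 Visual injury ratings (0 = no injury, 100 = complete kill) taken 14 days after treatment, relative to untreated controls. Compounds, in an acetone/DMSO aqueous carrier with crop oil and surfactant, were applied by track sprayer at 187 L/ha, in a twofold dilution series from the top rate, to plants at the first to second true-leaf stage.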

SMILES	pest or weed control at 70 g/ha [%]
Nc1c(F)c(-c2ccc(C3CC3)nc2)nc(C(=O)O)c1Cl [Compound 36, 4-amino-5-chloro-6′-cyclopropyl-3-fluoro-[2,3′-bipyridine]-6-carboxylic acid]	85 to 94

Same assay, conditions: Abutilon theophrasti, post-emergence, 336 h, ABUTH: velvetleaf (Abutilon theophrasti), application rate 140 (kg ai/ha; footnote: g ai/ha), read-out: Visual Growth Reduction (%) 14 Days After Application ABUTH

SMILES	pest or weed control at 140 g/ha [%]
Nc1c(F)c(-c2ccc(C3CC3)nc2)nc(C(=O)O)c1Cl [Compound 36, 4-amino-5-chloro-6′-cyclopropyl-3-fluoro-[2,3′-bipyridine]-6-carboxylic acid]	95 to 100

Same assay, conditions: Amaranthus retroflexus, post-emergence, 336 h, AMARE: redroot pigweed (Amaranthus retroflexus), application rate 70 (kg ai/ha; footnote: g ai/ha), read-out: Visual Growth Reduction (%) 14 Days After Application AMARE

SMILES	pest or weed control at 70 g/ha [%]
Nc1c(F)c(-c2ccc(C3CC3)nc2)nc(C(=O)O)c1Cl [Compound 36, 4-amino-5-chloro-6′-cyclopropyl-3-fluoro-[2,3′-bipyridine]-6-carboxylic acid]	95 to 100

Same assay, conditions: Amaranthus retroflexus, post-emergence, 336 h, AMARE: redroot pigweed (Amaranthus retroflexus), application rate 140 (kg ai/ha; footnote: g ai/ha), read-out: Visual Growth Reduction (%) 14 Days After Application AMARE

SMILES	pest or weed control at 140 g/ha [%]
Nc1c(F)c(-c2ccc(C3CC3)nc2)nc(C(=O)O)c1Cl [Compound 36, 4-amino-5-chloro-6′-cyclopropyl-3-fluoro-[2,3′-bipyridine]-6-carboxylic acid]	95 to 100

Same assay, conditions: Brassica napus, post-emergence, 336 h, BRSSS: oilseed rape, canola (Brassica napus), application rate 70 (kg ai/ha; footnote: g ai/ha), read-out: Visual Growth Reduction (%) 14 Days After Application BRSSS

SMILES	pest or weed control at 70 g/ha [%]
Nc1c(F)c(-c2ccc(C3CC3)nc2)nc(C(=O)O)c1Cl [Compound 36, 4-amino-5-chloro-6′-cyclopropyl-3-fluoro-[2,3′-bipyridine]-6-carboxylic acid]	85 to 94

Same assay, conditions: Brassica napus, post-emergence, 336 h, BRSSS: oilseed rape, canola (Brassica napus), application rate 140 (kg ai/ha; footnote: g ai/ha), read-out: Visual Growth Reduction (%) 14 Days After Application BRSSS

SMILES	pest or weed control at 140 g/ha [%]
Nc1c(F)c(-c2ccc(C3CC3)nc2)nc(C(=O)O)c1Cl [Compound 36, 4-amino-5-chloro-6′-cyclopropyl-3-fluoro-[2,3′-bipyridine]-6-carboxylic acid]	95 to 100

Same assay, conditions: Chenopodium album, post-emergence, 336 h, CHEAL: lambsquarters (Chenopodium album), application rate 70 (kg ai/ha; footnote: g ai/ha), read-out: Visual Growth Reduction (%) 14 Days After Application CHEAL

SMILES	pest or weed control at 70 g/ha [%]
Nc1c(F)c(-c2ccc(C3CC3)nc2)nc(C(=O)O)c1Cl [Compound 36, 4-amino-5-chloro-6′-cyclopropyl-3-fluoro-[2,3′-bipyridine]-6-carboxylic acid]	95 to 100

Same assay, conditions: Chenopodium album, post-emergence, 336 h, CHEAL: lambsquarters (Chenopodium album), application rate 140 (kg ai/ha; footnote: g ai/ha), read-out: Visual Growth Reduction (%) 14 Days After Application CHEAL

SMILES	pest or weed control at 140 g/ha [%]
Nc1c(F)c(-c2ccc(C3CC3)nc2)nc(C(=O)O)c1Cl [Compound 36, 4-amino-5-chloro-6′-cyclopropyl-3-fluoro-[2,3′-bipyridine]-6-carboxylic acid]	95 to 100

Same assay, conditions: Euphorbia heterophylla, post-emergence, 336 h, EPHHL: wild poinsettia (Euphorbia heterophylla), application rate 70 (kg ai/ha; footnote: g ai/ha), read-out: Visual Growth Reduction (%) 14 Days After Application EPHHL

SMILES	pest or weed control at 70 g/ha [%]
Nc1c(F)c(-c2ccc(C3CC3)nc2)nc(C(=O)O)c1Cl [Compound 36, 4-amino-5-chloro-6′-cyclopropyl-3-fluoro-[2,3′-bipyridine]-6-carboxylic acid]	95 to 100

Same assay, conditions: Euphorbia heterophylla, post-emergence, 336 h, EPHHL: wild poinsettia (Euphorbia heterophylla), application rate 140 (kg ai/ha; footnote: g ai/ha), read-out: Visual Growth Reduction (%) 14 Days After Application EPHHL

SMILES	pest or weed control at 140 g/ha [%]
Nc1c(F)c(-c2ccc(C3CC3)nc2)nc(C(=O)O)c1Cl [Compound 36, 4-amino-5-chloro-6′-cyclopropyl-3-fluoro-[2,3′-bipyridine]-6-carboxylic acid]	95 to 100

Same assay, conditions: Helianthus annuus, post-emergence, 336 h, HELAN: sunflower (Helianthus annuus), application rate 70 (kg ai/ha; footnote: g ai/ha), read-out: Visual Growth Reduction (%) 14 Days After Application HELAN

SMILES	pest or weed control at 70 g/ha [%]
Nc1c(F)c(-c2ccc(C3CC3)nc2)nc(C(=O)O)c1Cl [Compound 36, 4-amino-5-chloro-6′-cyclopropyl-3-fluoro-[2,3′-bipyridine]-6-carboxylic acid]	95 to 100

Same assay, conditions: Helianthus annuus, post-emergence, 336 h, HELAN: sunflower (Helianthus annuus), application rate 140 (kg ai/ha; footnote: g ai/ha), read-out: Visual Growth Reduction (%) 14 Days After Application HELAN

SMILES	pest or weed control at 140 g/ha [%]
Nc1c(F)c(-c2ccc(C3CC3)nc2)nc(C(=O)O)c1Cl [Compound 36, 4-amino-5-chloro-6′-cyclopropyl-3-fluoro-[2,3′-bipyridine]-6-carboxylic acid]	95 to 100

Same assay, conditions: Viola tricolor, post-emergence, 336 h, VIOTR: wild pansy (Viola tricolor), application rate 70 (kg ai/ha; footnote: g ai/ha), read-out: Visual Growth Reduction (%) 14 Days After Application VIOTR

SMILES	pest or weed control at 70 g/ha [%]
Nc1c(F)c(-c2ccc(C3CC3)nc2)nc(C(=O)O)c1Cl [Compound 36, 4-amino-5-chloro-6′-cyclopropyl-3-fluoro-[2,3′-bipyridine]-6-carboxylic acid]	0 to 29

Same assay, conditions: Viola tricolor, post-emergence, 336 h, VIOTR: wild pansy (Viola tricolor), application rate 140 (kg ai/ha; footnote: g ai/ha), read-out: Visual Growth Reduction (%) 14 Days After Application VIOTR

SMILES	pest or weed control at 140 g/ha [%]
Nc1c(F)c(-c2ccc(C3CC3)nc2)nc(C(=O)O)c1Cl [Compound 36, 4-amino-5-chloro-6′-cyclopropyl-3-fluoro-[2,3′-bipyridine]-6-carboxylic acid]	0 to 29

The compounds below were run on Key Grass and Sedge Weeds as well as Grass Crops (assay: Post-Emergent Test II (Table 6)). Settings: post-emergence, 336 h, CYPSS, 70 g ai/ha, 14 days after application, read-out: Visual Growth Reduction (%) 14 Days After Application CYPSS.
Type: in vivo
Outline: as §1

SMILES	pest or weed control at 70 g/ha [%]
Nc1c(F)c(-c2ccc(C3CC3)nc2)nc(C(=O)O)c1Cl [Compound 36, 4-amino-5-chloro-6′-cyclopropyl-3-fluoro-[2,3′-bipyridine]-6-carboxylic acid]	95 to 100
